Experiments:
Oxytocin receptor = target: T1, Oxytocin receptor (Rattus norvegicus, UniProt P70536); test: Compound was tested for its ability to inhibit binding of Oxytocin to its Oxytocin receptor in rat uterine tissue
T1 sequence (P70536 whole entry): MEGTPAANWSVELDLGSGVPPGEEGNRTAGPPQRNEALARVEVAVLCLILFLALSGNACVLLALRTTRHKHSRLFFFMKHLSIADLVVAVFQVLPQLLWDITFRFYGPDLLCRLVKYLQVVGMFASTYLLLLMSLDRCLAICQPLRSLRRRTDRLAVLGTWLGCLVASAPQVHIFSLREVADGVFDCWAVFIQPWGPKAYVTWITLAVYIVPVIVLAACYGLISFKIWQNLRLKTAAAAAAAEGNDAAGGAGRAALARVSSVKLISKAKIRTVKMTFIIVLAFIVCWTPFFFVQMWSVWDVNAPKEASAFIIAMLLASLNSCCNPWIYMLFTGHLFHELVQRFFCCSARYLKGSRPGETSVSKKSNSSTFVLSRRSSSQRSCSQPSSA

[1] = Compound was tested for its ability to inhibit binding of arginine vasopressin to Vasopressin receptor (V1 subtype)

With `COc1c([C@@H](O)CC(C)C)ccc2c1C(=O)OCc1cc(C)cc(O)c1O2` [PENICILLIDE] the IC50 (Oxytocin receptor) was 67 µM.

With `COc1c([C@H](CC(C)C)OC(C)=O)ccc2c1C(=O)OCc1cc(C)cc(O)c1O2` the IC50 (Oxytocin receptor) was 8.4 µM and the IC50 [1] was greater than 100 µM.

In the case of `COc1cc(C)cc2c1Oc1ccc([C@H](CC(C)C)OC(C)=O)c(OC)c1C(=O)OC2`, the IC50 (Oxytocin receptor) is reported as 21 µM and the IC50 [1] is reported as greater than 100 µM.

`COc1cc(C)cc2c1Oc1ccc([C@@H](O)CC(C)C)c(OC)c1C(=O)OC2` gave an IC50 (Oxytocin receptor) greater than 100 µM.

Work on `COc1c([C@H](CC(C)C)OC(C)=O)ccc2c1C(=O)Oc1cc(C)cc(C=O)c1O2` yielded an IC50 (Oxytocin receptor) greater than 100 µM.

With `COc1c(C(=O)CC(C)C)ccc2c1C(=O)OCc1cc(C)cc(O)c1O2` the IC50 (Oxytocin receptor) was greater than 100 µM.

For `COc1c([C@H](CC(C)C)OC(C)=O)ccc2c1C(=O)OCc1cc(C)cc(OC(C)=O)c1O2`, the IC50 (Oxytocin receptor) was 5 µM.
